ChEMBL document CHEMBL3046097, “Synthesis and QSAR analysis of chalcone derivatives as nitric oxide inhibitory agent” (Med Chem Res, 2012)

Columns and labels:
[1] = system: RAW264.7; experiment: Anti-inflammatory activity in Mus musculus (mouse) RAW264.7 cells assessed as inhibition of IFN-gamma/LPS-induced NO production after 17 to 20 hr by Griess assay; assay type: functional, cell-based
[2] = system: RAW264.7; experiment: Cytotoxicity against Mus musculus (mouse) RAW264.7 cells assessed as reduction in viable cells at 25 uM after 17 to 20 hr by MTT assay; assay type: cell-based; settings: raw264.7, 25 µM
[3] = system: RAW264.7; experiment: Cytotoxicity against Mus musculus (mouse) RAW264.7 cells assessed as reduction in viable cells at 250 uM after 17 to 20 hr by MTT assay; assay type: cell-based; settings: raw264.7, 250 µM
[4] = system: RAW264.7; experiment: Cytotoxicity against Mus musculus (mouse) RAW264.7 cells assessed as reduction in viable cells at 50 uM after 17 to 20 hr by MTT assay; assay type: cell-based; settings: raw264.7, 50 µM

Row | Structure (SMILES) | IC50 ([1]; read-out: IC50) [µM] | IC50 ([1]; read-out: pIC50 (converted)) [µM] | other results
1 | O=C(/C=C/c1ccc(O)cc1)c1cccs1 | 46.8 |  | 
2 | Cc1ccc(C(=O)/C=C/c2ccc(F)cc2)o1 | 17 | 17 | 
3 | O=C(/C=C/c1ccccc1O)c1ccco1 | 19.3 | 19.5 | 
4 | O=C(/C=C/c1ccccc1O)c1cccs1 | 16.2 |  | 
5 | COc1ccc(OC)c(/C=C/C(=O)c2ccco2)c1 | 16 | 15.8 | 
6 | COc1ccc(OC)c(/C=C/C(=O)c2ccc(Cl)s2)c1 | 26 |  | 
7 | Cc1ccc(C(=O)/C=C/c2ccccc2Cl)o1 | 17 | 17 | 
8 | Cc1ccc(C(=O)/C=C/c2ccco2)o1 | 21.3 | 21.4 | Activity [2]: Non-toxic; Activity [3]: Non-toxic; Activity [4]: Non-toxic
9 | Cc1cc(C(=O)/C=C/c2ccccc2O)c(C)o1 | 13.8 |  | 
10 | Cc1cc(C(=O)/C=C/c2cccc(O)c2)c(C)o1 | 7.96 |  | 
11 | Cc1cc(C(=O)/C=C/c2ccc(O)cc2)c(C)o1 | 13.5 |  | 
12 | Cc1cc(C(=O)/C=C/c2ccccc2OCC(=O)O)c(C)o1 | ≥ 50 |  | 
13 | O=C(/C=C/c1ccccc1O)c1ccccn1 | 29.9 |  | 
14 | O=C(/C=C/c1cccc(O)c1)c1ccccn1 | 49.5 |  | 
15 | O=C(/C=C/c1ccccc1O)c1ccncc1 | 31.7 |  | 
16 | O=C(/C=C/c1cccc(O)c1)c1ccncc1 | ≥ 50 |  | 
17 | O=C(/C=C/c1ccc(O)cc1)c1ccncc1 | ≥ 50 |  | 
18 | COc1ccc(OC)c(/C=C/C(=O)c2cccs2)c1 | 38.7 |  | 
19 | O=C(/C=C/c1ccccc1O)c1ccc(Cl)s1 | 23.4 |  | 
20 | O=C(/C=C/c1cccc(O)c1)c1ccc(Cl)s1 | 33.3 |  | 

Row | Structure (SMILES) | IC50 ([1]; read-out: IC50) [µM] | IC50 ([1]; read-out: pIC50 (converted)) [µM] | other results
21 | O=C(/C=C/c1ccc(O)cc1)c1ccc(Cl)s1 | ≥ 50 |  | 
22 | O=C(/C=C/c1cccc(O)c1)c1ccco1 | 24.8 | 24.5 | 
23 | O=C(/C=C/c1ccc(O)cc1)c1ccco1 | 24.9 | 25.1 | 
24 | Cc1ccc(C(=O)/C=C/c2ccccc2O)o1 | 5.88 | 6.92 | 
25 | Cc1ccc(C(=O)/C=C/c2cccc(O)c2)o1 | 9.35 | 9.33 | 
26 | Cc1ccc(C(=O)/C=C/c2ccc(O)cc2)o1 | 16.3 | 16.2 | 
27 | COc1ccc(OC)c(/C=C/C(=O)c2ccc(C)o2)c1 | 2.51 | 2.51 | 
28 | Cc1ccc(C(=O)/C=C/c2ccccc2OCC(=O)O)o1 | ≥ 50 |  | 
29 | Cc1ccc(C(=O)/C=C/c2ccc([N+](=O)[O-])cc2)o1 | 14.5 | 14.5 | 
30 | COc1cc(OC)c(/C=C/C(=O)c2ccc(C)o2)c(OC)c1 | 5.62 | 5.62 | 
31 | COc1ccc(/C=C/C(=O)c2ccc(C)o2)c(OC)c1OC | 4.47 | 4.47 | 
32 | COc1ccc(/C=C/C(=O)c2ccc(C)o2)c(F)c1 | 5.31 | 12.3 | 
33 | COc1cccc(/C=C/C(=O)c2ccc(C)o2)c1OC | 2.26 | 2.24 | Activity [2]: Toxic; Activity [3]: Toxic; Activity [4]: Toxic
34 | COc1cccc(OC)c1/C=C/C(=O)c1ccc(C)o1 | 6.45 | 6.46 | 
35 | Cc1ccc(C(=O)/C=C/c2ccccc2F)o1 | 12.9 | 12.9 | 
36 | Cc1ccc(C(=O)/C=C/c2cccc(Cl)c2)o1 | 7.76 | 7.76 | 
37 | Cc1ccc(C(=O)/C=C/c2ccc(Cl)cc2)o1 | 11.5 | 11.5 | 
38 | Cc1ccc(C(=O)/C=C/c2cccc(F)c2)o1 | 16.1 | 16.2 | 
39 | COc1cc(O)cc(O)c1C(=O)/C=C/c1ccccc1 [CARDAMOMIN] | 11.5 |  | 
40 | COC(=O)[C@@H](N)CCCNC(=N)N[N+](=O)[O-] [L-NAME] | 23.2 |  | 
